Values belong to the molecule of their own block, whether it stands above or below them.
Key:
[1] = Ease of emulsification, water content of oil phase by Karl Fisher; format: physicochemical; settings: 20 ml toluene + 20 ml test solvent + 20 ml water, 40° C., 15 minutes
Protocol: In this Example, the emulsifying properties of the compositions of the invention were compared to various commonly used solvents and to mixes of benzoates.
Tests were conducted by adding exactly 20 ml of toluene to 20 ml of the test solvent in a glass stoppered cylinder and shaking to mix. When mixed, 20 ml of water was then added, the resulting mixture warmed to 40° C. and shaken 30 times.

[2] = Spreading Coefficient and interfacial tension against water; format: physicochemical
Description: The higher the Spreading Coefficient, the greater the spreadability.

[3] = tested on: skin; settings: in vivo; cited from earlier work
[4] = Cloud point and pour point; format: physicochemical
Protocol: "Cloud point", refers to the temperature at which a waxy solid material appears as the liquid composition being examined is cooled. Cloud points are also associated with pour points, which is the lowest temperature at which a liquid will flow when a container is inverted. In all cases as the temperature is lowered, the cloud point is detected first, with the pour point being generally 5°-25° F. lower.

[5] = Greasiness comparison on skin; settings: 70°-73°F
Description: A comparison of the composition of the present invention was undertaken with a single benzoate ester falling within the carbon chain length range encompassed in the mixtures of the invention. […] This ester product is the benzoic acid ester of a mixture of C12, C13, C14 and C15 alcohols corresponding to that contained in the NEODOL 25 alcohol.

[6] = Gel formation/settling with suspending agents; format: physicochemical
[7] = tested on: rats; settings: Example 13; no source given; cited from earlier work

% Water in Oil Phase (upper layer; by K-F Method) [1]: 0.12%
Spreading Coefficient [2]: 17.7 dynes/cm
interfacial tension against water ([2]; 25° C.): 17. dynes/cm
Molecule: CCCCCCCCCCCCCC(=O)OC(C)C [IPM (isopropyl myristate), isopropyl myristate]
Skin irritation [3]: suspect as an irritant

% Water in Oil Phase (upper layer; by K-F Method) [1]: 0.66%
Molecule: CCCCCCCCCCCCCCCC(=O)OC(C)C [IPP (isopropyl palmitate), isopropyl palmitate]

Cloud point [4]: 21 °C
Physical state at ambient room temperature [5]: virtually a solid
Settling time [6]: 60 to 90 s
Gel viscosity ([6]; used as the organic liquid for the gel): abnormally high viscosities
Molecule: CCCCCCCCCCCCCCOC(=O)c1ccccc1 [Myristyl benzoate, myristyl (C14) benzoate]

Second part, the molecule before the results:

Molecule: CCCCOC(=O)c1ccccc1 [butyl benzoate]
LD50 (comparison ester) [7]: 3.5 g/kg of body weight

Molecule: Octyl Isononanoate
% Water in Oil Phase (upper layer; by K-F Method) [1]: 0.26%
